# Measurements: the supplement of paper PMC10307832
# What was measured:
# Test in all cases: relative viability (nuclei count vs DMSO), 5 days (fraction); higher = more cells survive
# Metformin + OSI-027 = compound: CN(C)C(=N)NC(=N)N [Metformin] + COc1cccc2cc(-c3nc([C@H]4CC[C@H](C(=O)O)CC4)n4ncnc(N)c34)[nH]c12 [OSI-027] (partner 0.5 µM)
# Outline: (§1)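 Relative viability is defined as nuclei in treated wells over nuclei in vehicle wells. Duplicate plates were run and medians reported. Lung cancer cell lines in 1536-well plates were dosed by pin tool one day after seeding, with one drug or with a fixed anchor-drug dose plus five library-drug doses (not always all listed) in √10 steps, and nuclei were counted after 5 days.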
# Metformin + Linsitinib = compound: CN(C)C(=N)NC(=N)N [Metformin] + C[C@]1(O)C[C@@H](c2nc(-c3ccc4ccc(-c5ccccc5)nc4c3)c3c(N)nccn32)C1 [Linsitinib] (partner 1 µM)
# Outline: as §1
# Metformin + Phenformin = compound: CN(C)C(=N)NC(=N)N [Metformin] + N=C(N)NC(=N)NCCc1ccccc1 [Phenformin] (partner 250 µM)
# Outline: as §1
# Apatinib + Luminespib = compound: N#CC1(c2ccc(NC(=O)c3cccnc3NCc3ccncc3)cc2)CCCC1 [Apatinib] + CCNC(=O)c1noc(-c2cc(C(C)C)c(O)cc2O)c1-c1ccc(CN2CCOCC2)cc1 [Luminespib] (partner 0.01 µM)
# Outline: as §1
Cell Line,relative viability (Metformin + OSI-027; first compound 10 µM),relative viability (Metformin + OSI-027; first compound 31.62 µM),relative viability (Metformin + OSI-027; first compound 100 µM),relative viability (Metformin + OSI-027; first compound 316.23 µM),relative viability (Metformin + OSI-027; first compound 1000 µM),relative viability (Metformin + Linsitinib; first compound 10 µM),relative viability (Metformin + Linsitinib; first compound 31.62 µM),relative viability (Metformin + Linsitinib; first compound 100 µM),relative viability (Metformin + Linsitinib; first compound 316.23 µM),relative viability (Metformin + Linsitinib; first compound 1000 µM),relative viability (Metformin + Phenformin; first compound 10 µM),relative viability (Metformin + Phenformin; first compound 31.62 µM),relative viability (Metformin + Phenformin; first compound 100 µM),relative viability (Metformin + Phenformin; first compound 316.23 µM),relative viability (Metformin + Phenformin; first compound 1000 µM),relative viability (Apatinib + Luminespib; first compound 0.08 µM),relative viability (Apatinib + Luminespib; first compound 0.253 µM),relative viability (Apatinib + Luminespib; first compound 0.8 µM),relative viability (Apatinib + Luminespib; first compound 2.53 µM),relative viability (Apatinib + Luminespib; first compound 8 µM)
HCC-44,1.14,0.921,0.696,0.632,0.491,0.712,0.679,0.695,0.597,0.654,0.236,0.35,0.298,0.223,0.166,0.98,1.21,1.03,1.02,0.751
HOP-62,0.827,0.903,0.992,0.678,0.861,0.891,1.09,0.995,1.04,0.846,0.486,0.577,0.527,0.478,0.593,1.01,0.838,0.77,0.714,0.692
NCI-H358,0.737,0.879,0.801,0.716,0.749,1.04,0.937,0.959,1.13,1.31,0.351,0.237,0.217,0.309,0.328,0.246,0.368,0.684,0.382,0.236
NCI-H596,1.04,0.84,0.85,0.636,0.988,1.11,1.18,1.32,1.08,1.25,0.84,0.73,0.689,0.765,0.952,1.09,1.2,0.926,0.97,0.903
ABC-1,0.661,0.529,0.466,0.266,0.22,,0.675,0.971,0.307,0.325,0.292,0.244,0.251,0.202,0.19,,0.907,0.646,0.554,0.553
SW 900,0.597,0.781,0.617,0.544,0.538,,,,,,0.805,0.736,0.665,0.539,0.862,0.171,0.178,0.175,0.185,0.177
NCI-H1734,0.653,0.581,0.537,0.544,0.618,0.99,0.954,1.05,0.844,0.946,0.431,0.447,0.405,0.367,0.379,0.19,0.187,0.275,0.165,0.193
HARA,,0.6,0.529,0.47,0.515,1.14,1.07,1.2,0.872,1.06,,0.459,0.518,0.493,0.591,0.928,0.875,0.419,0.6,0.678
NCI-H1703,,,,,,1.41,0.892,0.832,0.485,0.599,,,,,,,,,,
A549,,,,,,0.647,0.789,0.85,0.631,0.711,0.0727,0.111,0.127,0.124,0.154,,,,,
NCI-H1915,,0.666,0.651,0.56,0.665,,1.22,1.15,1.14,1.11,,0.357,0.384,0.352,0.365,0.891,0.852,0.737,0.692,0.544
NCI-H1355,0.434,0.373,0.396,0.416,0.406,0.782,0.783,0.756,0.731,0.854,0.472,0.412,0.474,0.432,0.47,0.672,0.809,0.761,0.647,0.563
NCI-H1650,0.887,0.889,0.837,0.771,0.38,,,,,,0.7,0.548,0.593,0.458,0.476,,0.185,0.217,0.179,0.168
HCC-78,0.466,0.49,0.362,0.426,0.422,0.842,0.927,0.877,0.681,0.927,0.685,0.716,0.627,0.651,0.782,,,,,
NCI-H1666,0.97,0.974,1.05,0.99,0.939,0.863,1,0.962,0.703,1.09,,0.575,0.569,0.499,0.58,0.948,1.07,1.04,0.983,1.05
HCC-15,,0.812,0.655,0.586,0.678,0.877,0.965,0.953,0.857,0.947,,0.495,0.464,0.426,0.491,0.364,0.241,0.302,0.317,0.316
EKVX,0.623,0.77,0.645,,0.681,0.739,0.969,1.04,0.861,0.9,0.23,0.253,0.239,,0.189,0.841,0.857,0.851,0.821,0.816
NCI-H3122,0.672,0.851,0.574,0.419,0.339,0.89,0.98,0.949,0.96,0.92,0.307,0.303,0.322,0.287,0.288,0.0784,0.0827,0.0738,0.0782,0.0871
NCI-H1651,0.904,1.02,1.03,0.954,1.1,1.3,1.23,1.35,1.21,1.43,0.42,0.312,0.371,0.327,0.373,0.981,1.12,0.855,0.579,0.652
